Data reported in publication PMC6278073 (BMC Pharmacology & Toxicology, 2018).

Legend:
[1] = in vivo
Experimental: (§1) Prairie dog PK studies were performed at Centers for Disease Control and Prevention (CDC, Atlanta). […] The animals were collected in Lubbock, TX. All animals are given full physical examination by a veterinarian prior to being shipped to CDC. […] For each blood sample collection, prairie dogs were anesthetized with 5% isoflurane gas and maintained with 1–3% isoflurane during sample collection through peripheral veins. Plasma was prepared and stored at -70 °C until bioanalysis.
(§2) Sample preparation and bioanalysis was performed at the University of Cincinnati. For extraction, 50 μl of plasma samples were transferred to glass tubes. […] The extraction solvent was separated by centrifugation. […] Collected fractions were evaporated using centrifugal evaporator.
(§3) Analysis of extracted samples was performed by an LC-MS/MS method. […] The column was Synergi™ 4 μm Polar-RP 50 × 2.00 mm (Phenomenex) run at a flow rate of 400 μl/min with an injection volume of 5 μl (partial loop). […] The analysis was performed using a Thermo Scientific LTQ-FT™ mass spectrometer operated in positive-ion electrospray mode.
(§4) Pharmacokinetic analysis was performed on either mean plasma concentration-time data (mouse) or on the individual plasma concentration-time data (prairie dog, guinea pig, and monkey) employing Phoenix® WinNonlin 6.4®. PK parameters such as maximum plasma concentration (Cmax), the time corresponding to Cmax (Tmax), terminal half-life (T1/2), the volume of distribution (Vd) and clearance (CL) were calculated by non-compartmental methods and presented as the arithmetic mean ± standard deviation (SD). The bioavailability (F) was estimated by dividing the mean dose-normalized area under the plasma concentration-time curve from time 0 extrapolated to infinity (AUCinf) upon oral dose by the mean dose-normalized AUCinf upon intravenous dose.

[2] = in vivo; remark: listed apart in the source
Experimental: PK studies in animals were approved by the Institutional Animal Care and Use Committee (IACUC) of the institution performing the study. […] Twenty-four animals were used for each route of administration and both the genders were randomly included (n = 3 mice per time point). The intravenous dose was administered via tail vein injection at an injection volume of 5 ml/kg, and the oral dose was given via gavage at a dose volume of 10 ml/kg. […] Mice were sacrificed with carbon dioxide asphyxiation following bleeds. Plasma was prepared and stored at -80 °C until bioanalysis.
as §2, §3, §4

[3] = nilotinib, 7 mg twice-daily, 20 mg once-daily, 20 mg twice-daily for 7 days, prairie dogs
Experimental: as §1

[4] = in vivo; settings: male, Hartley, guinea pig, iv, 10 mg/kg
Experimental: Male Hartley guinea pigs (450–650 g) were procured from Charles River. Nine animals were used, three (n = 3) for each route of administration. The intravenous dose was given via jugular vein cannula, and the oral dose was given via gavage. […] Plasma was prepared and stored at -80 °C until bioanalysis.
as §2, §3, §4

[5] = nilotinib; cited from earlier work
[6] = nilotinib, cited from earlier work
[7] = system: plasma protein; settings: nilotinib, all the preclinical species and humans; cited from earlier work
[8] = prairie dogs
Experimental: as §1
The formulation used in previously reported PK studies have varied based on the animal model. […] For their intravenous PK study in dogs, Solutol® HS 15 was used instead of cremophor [13].

[9] = in vivo; remark: listed apart in the source
Experimental: Six Animals (3.5 kg) were procured from Charles River, three (n = 3) for each route of administration. Animals were fasted overnight before dosing and at least 1 h following dose administration. The intravenous dose was given via a saphenous vein at an injection volume of 1 ml/kg, and oral dosing was performed via gavage at a dose volume of 5 ml/kg. […] Plasma was prepared and stored at-70 °C until bioanalysis.
as §2, §3, §4

[10] = male, dog, in vivo, iv, 10 mg/kg
[11] = male, dog, in vivo, po, 30 mg/kg
[12] = both, C57BL/6, mouse, in vivo, iv, 10 mg/kg
[13] = both, C57BL/6, mouse, in vivo, po, 10 mg/kg
[14] = male, dog, in vivo, po, 10 mg/kg
[15] = male, dog, in vivo, po, 20 mg/kg
[16] = nilotinib, IV 10 mg/kg, prairie dogs, mean ± SD
[17] = cynomolgus monkey, in vivo, iv, 10 mg/kg
[18] = cynomolgus monkey, in vivo, po, 10 mg/kg

Cc1ccc(NC(=O)c2ccc(CN3CCN(C)CC3)cc2)cc1Nc1nccc(-c2cccnc2)n1 [imatinib]
bioavailability ([1]; male, dog, in vivo): ~22%
AUC(0-inf) [1, 10]: 12600 ng·h/mL
AUC(0-inf) [1, 11]: 8090 ± 3010 ng·h/mL
Cmax [1, 11]: 1680 ± 834 ng/mL
Tmax [1, 11]: 3 ± 1.15 h
AUC(0-inf) [2, 12]: 4520 ng·h/mL
AUC(0-inf) [2, 13]: 4850 ng·h/mL
Tmax [2, 13]: 1 h
Cmax [2, 13]: 1470 ng/mL

Cc1cn(-c2cc(NC(=O)c3ccc(C)c(Nc4nccc(-c5cccnc5)n4)c3)cc(C(F)(F)F)c2)cn1 [nilotinib]
Deviation of predicted peak and trough levels on Days 1 and 7 from reported levels [3]: ≤ 25%
Vd [4]: 37.6 L/kg
clearance [4]: 198 mL/min/kg
half-life [4]: 2.1 h
Biopharmaceutics Classification System class [5]: class II/IV
Permeability [5]: poor to moderate
Solubility in an acidic environment ([6]; acidic environment): soluble
Solubility at pH above 4.5 ([6]; pH above 4.5): poorly soluble
Water solubility [6]: low
Protein binding [7]: greater than 97%
Tolerability in multi-dose studies ([8]; nilotinib/NMP (20 mg/ml) in PEG 300 (1:10), oral, weight loss, severe diarrhea, elevated liver enzymes also in vehicle-treated animals, data not shown): not tolerated
Tolerability in multiple dose PK studies ([8]; oral suspension of Avicel-RC 591 and HPMC): tolerable
bioavailability ([1]; male, dog, in vivo, nilotinib, oral 20 mg/kg in NMP/PEG 300 vs IV 10 mg/kg, prairie dogs): ~24%
AUC(0-inf) [1, 10]: 57600 ng·h/mL
MRT [1, 10]: 6.7 ± 2.9 h
Vd [1, 10]: 1.16 ± 0.326 L/kg
clearance [1, 10]: 3.17 mL/min/kg
half-life ([1]; male, dog, in vivo, iv, 10 mg/kg, T1/2, nilotinib, IV 10 mg/kg, prairie dogs, mean ± SD): 6.5 h
AUC(0-inf) [1, 14]: 9330 ± 3630 ng·h/mL
Cmax [1, 14]: 951 ± 255 ng/mL
Tmax [1, 14]: 5.6 ± 2.19 h
half-life ([1]; male, dog, in vivo, po, 10 mg/kg, Apparent T1/2, nilotinib, oral 10 mg/kg in Avicel/HPMC suspension, prairie dogs, mean ± SD): 3.5 ± 0.6 h
bioavailability ([1]; male, dog, in vivo, po, 10 mg/kg, nilotinib, oral 10 mg/kg in Avicel/HPMC suspension vs IV 10 mg/kg, prairie dogs): 16%
AUC(0-inf) [1, 15]: 28000 ng·h/mL
Cmax [1, 15]: 1670 ± 315 ng/mL
Tmax [1, 15]: 7.2 ± 1.79 h
half-life ([1]; male, dog, in vivo, po, 20 mg/kg, Apparent T1/2, nilotinib, oral 20 mg/kg in NMP/PEG 300, prairie dogs, mean ± SD): 7.5 h
bioavailability ([1]; male, dog, in vivo, po, 20 mg/kg, nilotinib, oral 20 mg/kg in NMP/PEG 300 vs IV 10 mg/kg, prairie dogs): 24%
AUC(0-inf) [1, 16]: 57,551 ± 15,508 ng.hr./ml
CL [1, 16]: 3.17 ± 1.28 mL/min/kg
T1/2 ([1]; nilotinib, IV 10 mg/kg, prairie dogs, mean ± SD, 10 mg/kg): 6.51 ± 2.97 h
Apparent T1/2 ([1]; nilotinib, oral 20 mg/kg in NMP/PEG 300, prairie dogs, mean ± SD, 20 mg/kg): 7.57 ± 2.01 h
AUC(0-inf) [2, 12]: 76300 ng·h/mL
MRT [2, 12]: 2.21 h
Vd [2, 12]: 0.29 L/kg
clearance [2, 12]: 2.19 mL/min/kg
half-life [2, 12]: 1.81 h
AUC(0-inf) [2, 13]: 38400 ng·h/mL
Tmax [2, 13]: 0.5 h
half-life [2, 13]: 2.94 h
bioavailability ([2]; both, C57BL/6, mouse, in vivo, po, 10 mg/kg, Bioavailability, nilotinib, oral 10 mg/kg in NMP/PEG 300 vs IV 10 mg/kg, C57BL/6 mice): 50%
Cmax ([2]; both, C57BL/6, mouse, in vivo, po, 10 mg/kg, nilotinib, oral 10 mg/kg in NMP/PEG 300, C57BL/6 mice): 18000 ng/mL
Cmax ([2]; both, C57BL/6, mouse, in vivo, po, 10 mg/kg, nilotinib, oral 10 mg/kg, C57BL/6 mice): ~18000 ng/mL
Time to Cmax after dosing ([2]; nilotinib, oral 10 mg/kg, C57BL/6 mice): 30 min
AUC(0-inf) [9, 17]: 16100 ng·h/mL
MRT [9, 17]: 8.9 ± 1.1 h
Vd [9, 17]: 5.74 ± 1.78 L/kg
clearance [9, 17]: 10.7 mL/min/kg
half-life ([9]; cynomolgus monkey, in vivo, iv, 10 mg/kg, T1/2, nilotinib, IV 10 mg/kg, Cynomolgus monkeys, mean ± SD): 7.8 h
AUC(0-inf) [9, 18]: 2100 ± 468 ng·h/mL
Cmax [9, 18]: 410 ± 46 ng/mL
Tmax [9, 18]: 1.67 ± 0.58 h
bioavailability [9, 18]: 13%
half-life ([9]; cynomolgus monkey, in vivo, po, 10 mg/kg, Apparent T1/2, nilotinib, oral 10 mg/kg in Avicel/HPMC, Cynomolgus monkeys, mean ± SD): 5.2 h
T1/2 ([9]; nilotinib, IV 10 mg/kg, Cynomolgus monkeys, mean ± SD): 7.79 ± 0.71 h
Apparent T1/2 ([9]; nilotinib, oral 10 mg/kg in Avicel/HPMC, Cynomolgus monkeys, mean ± SD): 5.16 ± 0.52 h
